Read-outs that look alike come from different tables or passages of the source.
Test system: cancer cell lines from the cancer cell line encyclopedia (CCLE)
Experiment: Cell line profiling (CLiP) proliferation experiment
Assay type: cell-based
Conditions: Homo sapiens; for EC50: read-out: Inflection Point; for IC50: read-out: Crossing Point
Method: Compound profiling experiment and data analysis was performed as previously described. Data was imported and plotted using the Tibco Spotfire DXP application. Lines were categorized as sensitive, intermediate and refractory as follows: Amax<-40 & Inflection Point <2 ~ Sensitive, Amax>-20 & Inflection Point >10 ~ Refractory, all else were called Intermediate. Cancer Cell line HG-U133 Plus 2 data was processed and normalized as described. […] Five sets of refractory cell lines were generated from the pool of refractory cell lines trying to match the lineage composition of the set of sensitive cell lines. The limma package was used as previously described to perform the statistical comparison.

[1] = KYSE-150, KYSE-150 (oesophagus)
[2] = L-363, L-363 (haematopoietic_and_lymphoid_tissue)
[3] = LN-18, LN-18 (central_nervous_system)
[4] = LN-229, LN-229 (central_nervous_system)
[5] = LS180, LS 180 (large_intestine)
[6] = LS-411N, LS411N (large_intestine)
[7] = MC116, MC116 (haematopoietic_and_lymphoid_tissue)
[8] = MIA PaCa-2, MIA PaCa-2 (pancreas)

CC(C)[C@@]12C[C@@H](O)[C@@](C)(O1)[C@@H]1CC[C@@H](C)[C@H]1[C@@H]2OC(=O)/C=C/c1ccccc1 [Englerin B]
EC50 (KARPAS-299, KARPAS-299): 12.7 µM
IC50 (KARPAS-422, KARPAS-422): 11.4 µM
EC50 (KARPAS-422, KARPAS-422): 11.4 µM
IC50 (KARPAS-422, KARPAS-422 cells): 11.4 µM
EC50 (KARPAS-422, KARPAS-422 cells): 11.4 µM
EC50 (KATO III, cell line KATO III): 18.8 µM
IC50 (KATO III): 19.4 µM
EC50 (KATO III): 18.8 µM
IC50 (KCL-22, KCL-22): 13.5 µM
EC50 (KCL-22, KCL-22): 12.9 µM
IC50 (KCL-22, KCL-22 cells): 13.5 µM
EC50 (KCL-22, KCL-22 cells): 12.9 µM
IC50 (KLE): > 30 µM
EC50 (KLE): 11.1 µM
IC50 (KM12, KM12): > 30 µM
IC50 (KM12, KM12 cells): > 30 µM
IC50 (KMS-11, KMS-11): 13.5 µM
EC50 (KMS-11, KMS-11): 13.2 µM
EC50 (KMS-11, KMS-11 cells): 13.2 µM
IC50 (KMS-12-BM, KMS-12-BM cells): 24.8 µM
EC50 (KMS-12-BM, KMS-12-BM cells): 24.8 µM
IC50 (KMS-12-BM): 24.8 µM
EC50 (KMS-12-BM): 24.8 µM
IC50 (KNS-62, KNS-62): > 30 µM
IC50 (KNS-62, KNS-62 cells): > 30 µM
IC50 (KU812, KU812): 8.76 µM
EC50 (KU812, KU812): 13.2 µM
EC50 (KU812, KU812 cells): 13.2 µM
IC50 (KYSE-30, KYSE-30 (oesophagus)): > 30 µM
IC50 (KYSE-70, KYSE-70 (oesophagus)): 28.2 µM
IC50 [1]: > 30 µM
EC50 [1]: 12 µM
IC50 (KYSE-270, KYSE-270 (oesophagus)): > 30 µM
IC50 (KYSE-270, cell line KYSE-270): > 30 µM
IC50 (KYSE-410, KYSE-410 (oesophagus)): 21.7 µM
IC50 (KYSE-450, KYSE-450 (oesophagus)): > 30 µM
IC50 (KYSE-450, KYSE-450 cells): > 30 µM
IC50 (KYSE-510, KYSE-510 (oesophagus)): > 30 µM
IC50 (KYSE-520, KYSE-520 (oesophagus)): 22.9 µM
IC50 [2]: 18.7 µM
EC50 [2]: 27.5 µM
IC50 (LAMA-84, LAMA-84 (haematopoietic_and_lymphoid_tissue)): > 30 µM
IC50 (LAMA-84, LAMA-84 cells): > 30 µM
IC50 (LCLC-97TM1, LCLC-97TM1 (lung)): > 30 µM
IC50 (LCLC-97TM1, LCLC-97TM1 cells): > 30 µM
IC50 (LCLC-103H, LCLC-103H (lung)): > 30 µM
IC50 (LCLC-103H, LCLC-103H cells): > 30 µM
IC50 [3]: 13.9 µM
EC50 [3]: 13.3 µM
EC50 (LN-18, LN-18 cells): 13.3 µM
IC50 [4]: > 30 µM
EC50 [4]: 22.1 µM
IC50 (LOX IMVI, LOX IMVI (skin)): > 30 µM
IC50 (LOX IMVI, LOX IMVI cells): > 30 µM
IC50 (LP-1, LP-1 cells): 18.7 µM
EC50 (LP-1, LP-1 cells): 18.7 µM
IC50 [5]: > 30 µM
EC50 [5]: 9.77 µM
IC50 (LS180, LS 180 cells): > 30 µM
EC50 (LS180, LS 180 cells): 9.77 µM
IC50 [6]: 16.3 µM
EC50 [6]: 16.3 µM
IC50 (LXF-289, LXF-289 (lung)): > 30 µM
IC50 (LoVo, LoVo (large_intestine)): > 30 µM
EC50 (LoVo, LoVo (large_intestine)): 12.6 µM
IC50 (Lu-65, LU65 (lung)): > 30 µM
IC50 (Lu-99, LU99 (lung)): 27.2 µM
EC50 (Lu-99, LU99 (lung)): 12.9 µM
IC50 [7]: 14.1 µM
EC50 [7]: 14.1 µM
IC50 (MCF7, MCF7 (breast)): 13.7 µM
EC50 (MCF7, MCF7 (breast)): 10.8 µM
IC50 (MCF7, MCF7 cells): 13.7 µM
EC50 (MCF7, MCF7 cells): 10.8 µM
IC50 (MDA-MB-175-VII, MDA-MB-175-VII (breast)): > 30 µM
IC50 (MDA-MB-231, MDA-MB-231 (breast)): > 30 µM
IC50 (MDA-MB-231, cell line MDA-MB-231 (breast, NS)): > 30 µM
IC50 (MDA-MB-415, MDA-MB-415 (breast)): > 30 µM
IC50 (MDA-MB-436, MDA-MB-436 (breast)): > 30 µM
IC50 (MDA-MB-453, MDA-MB-453 (breast)): 18.2 µM
IC50 (MDA-MB-468, MDA-MB-468 (breast)): > 30 µM
IC50 (MDA-MB-468, MDA-MB-468 cells): > 30 µM
IC50 (MEC1, MEC-1 (haematopoietic_and_lymphoid_tissue)): 22.2 µM
IC50 (MEG-01, MEG-01 (haematopoietic_and_lymphoid_tissue)): 29.2 µM
IC50 (MEL-JUSO, MEL-JUSO (skin)): > 30 µM
IC50 (MEL-JUSO, cell line MEL-JUSO (skin)): > 30 µM
IC50 (MFE-296, cell line MFE-296 (endometrium)): 23.1 µM
IC50 (MG-63, cell line MG-63 (bone)): > 30 µM
IC50 (MG-63, cell line MG-63): > 30 µM
IC50 [8]: > 30 µM
EC50 [8]: 11.3 µM
IC50 (MIA PaCa-2, cell line MIA PaCa-2 (pancreas)): > 30 µM

Reference: paper PMC4476799, “Englerin A Agonizes the TRPC4/C5 Cation Channels to Inhibit Tumor Cell Line Proliferation” (PLoS ONE, 2015)
